The values that follow come from US12070594B2, “Biomedical electrode with anti-microbial properties” (Compass Health Brands Corp., priority 2018, dated 2024).

Type in all cases: cell-based
The test system of test [1] is S. aureus ATCC 33592. Put plainly: Antibiotic Susceptibility of the Test Microorganisms.
Test [2] has as its system S. aureus ATCC 25923. As to the kind of experiment: Antibiotic susceptibility, reference microorganism.
The test system of test [3] is E. cloacae ATCC BAA-2468. As to the kind of experiment: Antibiotic Susceptibility of the Test Microorganisms.
Test [4] relates to A. baumannii ATCC BAA-1605. The test is described as above.
Test [5] concerns E. coli ATCC 25922. As to the kind of experiment: Antibiotic susceptibility, reference microorganism.
Test [6] deals with P. aeruginosa ATCC 27853. As to the kind of experiment: Antibiotic susceptibility, reference microorganism.
The test system of test [7] is E. faecalis ATCC 51575. Put plainly: Antibiotic Susceptibility of the Test Microorganisms.
Where [8] appears, read: susceptibility ≥21 mm, resistance ≤17 mm (CLSI M100).

With `Cc1onc(-c2ccccc2)c1C(=O)N[C@@H]1C(=O)N2[C@@H]1SC(C)(C)[C@@H]2C(=O)O` [Oxocillin], the “Test Microorganism Demonstrates Resistance?” value in test [1] is “Yes”. The “Test Microorganism Diameter” value in test [1] (susceptibility ≥13 mm, resistance ≤10 mm (CLSI M100)) amounted to 9.2 mm. The “Reference Microorganism Diameter” value in test [2] is recorded as 51.9 mm.
With `CCN1CCN(C(=O)N[C@@H](C(=O)N[C@@H]2C(=O)N3[C@@H]2SC(C)(C)[C@@H]3C(=O)O)c2ccccc2)C(=O)C1=O` [Piperacillin], the “Test Microorganism Demonstrates Resistance?” value in test [3] and in test [4] was “Yes” throughout. Besides, the “Test Microorganism Diameter” value in test [3] (setting [8]) and in test [4] (setting [8]) was 6.5 mm throughout. Also, the “Reference Microorganism Diameter” value is 25.3 mm in test [5] and 26.2 mm in test [6].
Take `CN[C@H](CC(C)C)C(=O)N[C@H]1C(=O)N[C@@H](CC(N)=O)C(=O)N[C@H]2C(=O)N[C@H]3C(=O)N[C@H](C(=O)N[C@H](C(=O)O)c4cc(O)cc(O)c4-c4cc3ccc4O)[C@H](O)c3ccc(c(Cl)c3)Oc3cc2cc(c3O[C@@H]2O[C@H](CO)[C@@H](O)[C@H](O)[C@H]2O[C@H]2C[C@](C)(N)[C@H](O)[C@H](C)O2)Oc2ccc(cc2Cl)[C@H]1O` [Vancomycin]: the “Test Microorganism Demonstrates Resistance?” value in test [7] is “Yes”. In addition, the “Test Microorganism Diameter” value in test [7] (susceptibility ≥17 mm, resistance ≤14 mm (CLSI M100)) was determined as 11.3 mm. The “Reference Microorganism Diameter” value in test [2] is 21.2 mm.
